Data from patent US11814444B2, “Cyclic polypeptides for PCSK9 inhibition” (Ra Pharmaceuticals, Inc., priority 2018, dated 2023).
Numbered stars: 1 amine (or outer) side, 2 acyl side, 3 side chain; on linkers, the order of the positions; unused ones are H or OH. Bridge positions count the residues as written; N and C are the ends. Square brackets hold non-standard residues; d marks the D form. Peptide text beside a SMILES is read from it. Trp(7-aza) = N[C@@H](Cc1c[nH]c2ncccc12)C(=O)O; X7 = O=C(CCSCc1cccc(CSCCN[*:1])c1)[*:2]; 1Nal = N[C@@H](Cc1cccc2ccccc12)C(=O)O; Ac4c(3,3-F2) = NC1(C(=O)O)CC(F)(F)C1; mXylylene = c1cc(C[*:1])cc(C[*:2])c1; Gly(octyl) = CCCCCCCC[C@H](N)C(=O)O; Val(3-OH) = CC(C)(O)[C@H](N)C(=O)O; 3Thi = N[C@@H](Cc1ccsc1)C(=O)O; Chg = N[C@H](C(=O)O)C1CCCCC1; PEG4 = NCCOCCOCCOCCOCCC(=O)O; Tle = CC(C)(C)[C@H](N)C(=O)O; αMeV = CC(C)[C@](C)(N)C(=O)O; NMeV = CN[C@H](C(=O)O)C(C)C; hSer = N[C@@H](CCO)C(=O)O; Iva = CC[C@](C)(N)C(=O)O; Nva = CCC[C@H](N)C(=O)O; Ac4c = NC1(C(=O)O)CCC1; Aib = CC(C)(N)C(=O)O; Mpa = O=C(O)CCS

Target: human PCSK9 / human LDLR EGFa domain interaction (Homo sapiens, UniProt Q8NBP7)
Sequence (Q8NBP7 153-692): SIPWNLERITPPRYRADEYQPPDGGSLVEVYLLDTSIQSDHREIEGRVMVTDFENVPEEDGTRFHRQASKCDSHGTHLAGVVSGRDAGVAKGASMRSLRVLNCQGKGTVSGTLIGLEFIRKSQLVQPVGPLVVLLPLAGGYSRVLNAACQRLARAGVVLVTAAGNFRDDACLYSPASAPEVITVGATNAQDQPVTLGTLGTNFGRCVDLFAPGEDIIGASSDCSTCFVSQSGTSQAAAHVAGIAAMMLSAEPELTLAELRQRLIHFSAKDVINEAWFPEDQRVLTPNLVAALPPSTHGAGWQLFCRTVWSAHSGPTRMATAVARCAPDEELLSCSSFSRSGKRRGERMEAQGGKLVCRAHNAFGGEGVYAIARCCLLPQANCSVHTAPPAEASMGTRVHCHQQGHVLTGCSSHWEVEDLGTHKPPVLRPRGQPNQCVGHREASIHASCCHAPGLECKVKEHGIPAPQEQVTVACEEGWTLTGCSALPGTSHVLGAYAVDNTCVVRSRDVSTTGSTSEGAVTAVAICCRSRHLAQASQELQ
Sequence (Q8NBP7 31-152 partner limits assumed): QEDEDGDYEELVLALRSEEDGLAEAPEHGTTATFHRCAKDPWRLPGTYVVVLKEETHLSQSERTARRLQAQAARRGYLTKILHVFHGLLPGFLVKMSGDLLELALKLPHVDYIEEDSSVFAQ
Assay: TR-FRET assay of inhibition of the PCSK9-LDLR protein-protein interaction
Format: binding
Settings: 20 nM avitag-biotinylated human PCSK9, 20 nM his-tagged human LDLR EGFa domain, 2 hours, room temperature
Procedure: A time-resolved fluorescence resonance energy (TR-FRET) assay was used to measure inhibition of the PCSK9-LDLR protein-protein interaction. Briefly, 20 nM avitag-biotinylated human PCSK9 was incubated with 20 nM his-tagged human LDLR EGFa domain in the presence of 5 nM LANCE Ulight Streptavidin (Perkin Elmer) and 5 nM europium-Anti-6×His (Perkin Elmer) for 2 hours covered at room temperature in buffer containing 50 mM HEPES, 150 mM NaCl, 5 mM CaCl2), 0.01% BSA and 0.01% Surfactant P20. Compounds were tested in dose-response and concentrations giving half-maximal inhibition calculated using a 4-parameter fit equation.

| IC50 [nM] | SMILES |
| --- | --- |
| 1000 to 21000 | CCC[C@@H]1NC(=O)[C@H](Cc2c[nH]c3ncccc23)NC(=O)[C@H]([C@@H](C)O)NC(=O)[C@H](Cc2ccsc2)NC(=O)[C@H](Cc2ccc(O)cc2)NC(=O)[C@H](C(C)(C)C)NC(=O)CCSCc2cccc(c2)CSC[C@@H](C(N)=O)NC(=O)[C@H]([C@@H](C)O)NC(=O)[C@H](CCC)NC(=O)[C@H](Cc2ccc(O)cc2)NC(=O)[C@H](CCC(=O)O)NC1=O [Compound 119] ([Mpa][Tle]Y[3Thi]T[Trp(7-aza)][Nva]EY[Nva]TC-NH2; linker 1-12 via mXylylene) |
| 1000 to 21000 | CC(C)[C@H]1C(=O)N[C@@H](Cc2ccccc2)C(=O)N2CCC[C@H]2C(=O)N[C@@H]([C@@H](C)O)C(=O)N[C@@H](Cc2cccc3ccccc23)C(=O)NC(C)(C)C(=O)N[C@@H](C)C(=O)N[C@@H](Cc2ccccc2)C(=O)N[C@@](C)(C(C)C)C(=O)N[C@@H](C)C(=O)NCCSCc2cccc(c2)CSCCC(=O)N1C [Compound 143] (cyclo([1Nal][Aib]AF[αMeV]A[X7][NMeV]FPT)) |
| 1 to 100 | CCC[C@H](NC(C)=O)C(=O)N[C@H]1CSCc2cccc(c2)CSC[C@@H](C(N)=O)NC(=O)[C@H]([C@@H](C)O)NC(=O)[C@H](C2CCCCC2)NC(=O)[C@H](Cc2c[nH]c3ncccc23)NC(=O)[C@H](Cc2c[nH]cn2)NC(=O)[C@H](CCC(=O)O)NC(=O)[C@H](Cc2c[nH]c3ncccc23)NC(=O)[C@H]([C@@H](C)O)NC(=O)[C@@H]2CCCN2C(=O)[C@H](Cc2ccc(O)cc2)NC(=O)[C@H](C(C)(C)C)NC1=O [Compound 152] (Ac-[Nva]C[Tle]YPT[Trp(7-aza)]EH[Trp(7-aza)][Chg]TC-NH2; linker 2-13 via mXylylene) |
| 100 to 1000 | CCC[C@H](NC(C)=O)C(=O)N[C@H]1CSCc2cccc(c2)CSC[C@@H](C(N)=O)NC(=O)[C@H]([C@@H](C)O)NC(=O)[C@H](CCC)NC(=O)[C@H](Cc2ccc(O)cc2)NC(=O)[C@H](CCC(=O)O)NC(=O)[C@H](CCC)NC(=O)[C@H](Cc2c[nH]c3ncccc23)NC(=O)[C@H]([C@@H](C)O)NC(=O)[C@@H]2CCCN2C(=O)[C@H](Cc2ccc(O)cc2)NC(=O)[C@H](C(C)(C)C)NC1=O [Compound 153] (Ac-[Nva]C[Tle]YPT[Trp(7-aza)][Nva]EY[Nva]TC-NH2; linker 2-13 via mXylylene) |
| 100 to 1000 | C[C@@H](O)[C@@H]1NC(=O)[C@H](C2CCCCC2)NC(=O)[C@H](Cc2c[nH]c3ncccc23)NC(=O)[C@H](Cc2c[nH]cn2)NC(=O)[C@H](CCC(=O)O)NC(=O)[C@H](Cc2c[nH]c3ncccc23)NC(=O)[C@H]([C@@H](C)O)NC(=O)[C@@H]2CCCN2C(=O)[C@H](Cc2ccc(O)cc2)NC(=O)[C@H](C(C)(C)C)NC(=O)CCSCc2cccc(c2)CSC[C@@H](C(N)=O)NC1=O [Compound 154] ([Mpa][Tle]YPT[Trp(7-aza)]EH[Trp(7-aza)][Chg]TC-NH2; linker 1-12 via mXylylene) |
| 100 to 1000 | CCC[C@@H]1NC(=O)[C@H](Cc2c[nH]c3ncccc23)NC(=O)[C@H]([C@@H](C)O)NC(=O)[C@@H]2CCCN2C(=O)[C@H](Cc2ccc(O)cc2)NC(=O)[C@H](C(C)(C)C)NC(=O)CCSCc2cccc(c2)CSC[C@@H](C(N)=O)NC(=O)[C@H]([C@@H](C)O)NC(=O)[C@H](CCC)NC(=O)[C@H](Cc2ccc(O)cc2)NC(=O)[C@H](C)NC1=O [Compound 157] ([Mpa][Tle]YPT[Trp(7-aza)][Nva]AY[Nva]TC-NH2; linker 1-12 via mXylylene) |
| 1000 to 21000 | CCC[C@@H]1NC(=O)[C@H](Cc2c[nH]c3ncccc23)NC(=O)[C@H]([C@@H](C)O)NC(=O)[C@@H]2CCCN2C(=O)[C@H](Cc2ccc(O)cc2)NC(=O)[C@H](C(C)(C)C)NC(=O)CCSCc2cccc(c2)CSC[C@@H](C(N)=O)NC(=O)[C@H]([C@@H](C)O)NC(=O)[C@H](CCC)NC(=O)[C@H](Cc2ccc(O)cc2)NC(=O)[C@H](CCO)NC1=O [Compound 158] ([Mpa][Tle]YPT[Trp(7-aza)][Nva][hSer]Y[Nva]TC-NH2; linker 1-12 via mXylylene) |
| 1000 to 21000 | CCC[C@@H]1NC(=O)[C@H](Cc2c[nH]c3ncccc23)NC(=O)[C@H]([C@@H](C)O)NC(=O)[C@@H]2CCCN2C(=O)[C@H](Cc2ccc(O)cc2)NC(=O)[C@H](C(C)(C)C)NC(=O)CCSCc2cccc(c2)CSC[C@@H](C(N)=O)NC(=O)[C@H](CCC(=O)O)NC(=O)[C@H](CCC)NC(=O)[C@H](Cc2ccc(O)cc2)NC(=O)[C@H](C)NC1=O [Compound 159] ([Mpa][Tle]YPT[Trp(7-aza)][Nva]AY[Nva]EC-NH2; linker 1-12 via mXylylene) |
| 100 to 1000 | CCC[C@@H]1NC(=O)[C@H](Cc2c[nH]c3ncccc23)NC(=O)[C@H]([C@@H](C)O)NC(=O)[C@@H]2CCCN2C(=O)[C@H](Cc2ccc(O)cc2)NC(=O)[C@H](C(C)(C)C)NC(=O)CCSCc2cccc(c2)CSC[C@@H](C(N)=O)NC(=O)[C@H]([C@@H](C)O)NC(=O)[C@H](CCC(=O)O)NC(=O)[C@H](Cc2ccc(O)cc2)NC(=O)[C@H](C)NC1=O [Compound 160] ([Mpa][Tle]YPT[Trp(7-aza)][Nva]AYETC-NH2; linker 1-12 via mXylylene) |
| 100 to 1000 | CCC[C@@H]1NC(=O)[C@H](Cc2c[nH]c3ncccc23)NC(=O)[C@H]([C@@H](C)O)NC(=O)[C@@H]2CCCN2C(=O)[C@H](Cc2ccc(O)cc2)NC(=O)[C@H](C(C)(C)C)NC(=O)CCSCc2cccc(c2)CSC[C@@H](C(=O)NCCOCCOCCOCCOCCC(N)=O)NC(=O)[C@H]([C@@H](C)O)NC(=O)[C@H](CCC)NC(=O)[C@H](Cc2ccc(O)cc2)NC(=O)[C@H](C)NC1=O [Compound 163] ([Mpa][Tle]YPT[Trp(7-aza)][Nva]AY[Nva]TC[PEG4]-NH2; linker 1-12 via mXylylene) |
| 100 to 1000 | CCCCCCCC[C@@H]1NC(=O)[C@H](Cc2c[nH]c3ncccc23)NC(=O)[C@H]([C@@H](C)O)NC(=O)[C@@H]2CCCN2C(=O)[C@H](Cc2ccc(O)cc2)NC(=O)[C@H](C(C)(C)C)NC(=O)CCSCc2cccc(c2)CSC[C@@H](C(N)=O)NC(=O)[C@H]([C@@H](C)O)NC(=O)[C@H](CCC)NC(=O)[C@H](Cc2ccc(O)cc2)NC(=O)[C@H](C)NC1=O [Compound 169] ([Mpa][Tle]YPT[Trp(7-aza)][Gly(octyl)]AY[Nva]TC-NH2; linker 1-12 via mXylylene) |
| 1000 to 21000 | CCC[C@@H]1NC(=O)[C@H](Cc2c[nH]c3ncccc23)NC(=O)[C@H]([C@@H](C)O)NC(=O)[C@@H]2CCCN2C(=O)[C@H](Cc2ccc(O)cc2)NC(=O)[C@H](C(C)(C)C)NC(=O)CCSCc2cccc(c2)CSC[C@@H](C(N)=O)NC(=O)[C@H](CCC(=O)O)NC(=O)[C@H](C2CCCCC2)NC(=O)[C@H](Cc2ccc(O)cc2)NC(=O)[C@H](C)NC1=O [Compound 171] ([Mpa][Tle]YPT[Trp(7-aza)][Nva]AY[Chg]EC-NH2; linker 1-12 via mXylylene) |
| 1000 to 21000 | CCC[C@@H]1NC(=O)[C@H](Cc2ccc(O)cc2)NC(=O)[C@H](C)NC(=O)[C@H](CCC)NC(=O)[C@H](Cc2c[nH]c3ncccc23)NC(=O)[C@H]([C@@H](C)O)NC(=O)[C@@H]2CCCN2C(=O)[C@H](Cc2ccc(O)cc2)NC(=O)[C@H](C(C)(C)C)NC(=O)CCSCc2cccc(c2)CSC[C@@H](C(N)=O)NC(=O)[C@H](C)NC1=O [Compound 172] ([Mpa][Tle]YPT[Trp(7-aza)][Nva]AY[Nva]AC-NH2; linker 1-12 via mXylylene) |
| 100 to 1000 | CCC[C@@H]1NC(=O)[C@H]([C@@H](C)O)NC(=O)[C@@H]2CCCN2C(=O)[C@H](Cc2ccc(O)cc2)NC(=O)[C@H](C(C)(C)C)NC(=O)[C@@H](NC(C)=O)CSCc2cccc(c2)CSC[C@@H](C(N)=O)NC(=O)[C@H]([C@@H](C)O)NC(=O)[C@](C)(C(C)C)NC(=O)[C@H](Cc2ccc(O)cc2)NC(=O)[C@H](C)NC1=O [Compound 173] (Ac-C[Tle]YPT[Nva]AY[αMeV]TC-NH2; linker 1-11 via mXylylene) |
| 1000 to 21000 | CCC[C@@H]1NC(=O)[C@H](Cc2c[nH]c3ccccc23)NC(=O)[C@H]([C@@H](C)O)NC(=O)[C@@H]2CCCN2C(=O)[C@H](Cc2ccc(O)cc2)NC(=O)[C@H](C(C)(C)C)NC(=O)CCSCc2cccc(c2)CSC[C@@H](C(N)=O)NC(=O)[C@H]([C@@H](C)O)NC(=O)[C@](C)(C(C)C)NC(=O)[C@H](Cc2ccc(O)cc2)NC(=O)[C@H](C)NC1=O [Compound 177] ([Mpa][Tle]YPTW[Nva]AY[αMeV]TC-NH2; linker 1-12 via mXylylene) |
| 1 to 100 | CC[C@]1(C)NC(=O)[C@H](Cc2c[nH]c3ncccc23)NC(=O)[C@H]([C@@H](C)O)NC(=O)[C@@H]2CCCN2C(=O)[C@H](Cc2ccc(O)cc2)NC(=O)[C@H](C(C)(C)C)NC(=O)[C@@H](NC(C)=O)CSCc2cccc(c2)CSC[C@H](C(N)=O)NC(=O)[C@H]([C@@H](C)O)NC(=O)[C@](C)(C(C)C)NC(=O)[C@H](Cc2ccc(O)cc2)NC(=O)[C@H](C)NC1=O [Compound 193] (Ac-C[Tle]YPT[Trp(7-aza)][Iva]AY[αMeV]T[dC]-NH2; linker 1-12 via mXylylene) |
| 1 to 100 | CC(=O)N[C@H]1CSCc2cccc(c2)CSC[C@H](C(N)=O)NC(=O)[C@H]([C@@H](C)O)NC(=O)[C@](C)(C(C)C)NC(=O)[C@H](Cc2ccc(O)cc2)NC(=O)[C@H](C)NC(=O)C2(CCC2)NC(=O)[C@H](Cc2c[nH]c3ncccc23)NC(=O)[C@H](C(C)(C)O)NC(=O)[C@@H]2CCCN2C(=O)[C@H](Cc2ccc(O)cc2)NC(=O)[C@H](C(C)(C)C)NC1=O [Compound 194] (Ac-C[Tle]YP[Val(3-OH)][Trp(7-aza)][Ac4c]AY[αMeV]T[dC]-NH2; linker 1-12 via mXylylene) |
| 1000 to 21000 | CC(=O)N[C@H]1CSCc2cccc(c2)CSC[C@H](C(N)=O)NC(=O)[C@H]([C@@H](C)O)NC(=O)[C@](C)(C(C)C)NC(=O)[C@H](Cc2ccc(O)cc2)NC(=O)[C@H](C)NC(=O)C2(CC(F)(F)C2)NC(=O)[C@H](Cc2c[nH]c3ncccc23)NC(=O)[C@H]([C@@H](C)O)NC(=O)[C@@H]2CCCN2C(=O)[C@H](Cc2ccc(O)cc2)NC(=O)[C@H](C(C)(C)C)NC1=O [Compound 195] (Ac-C[Tle]YPT[Trp(7-aza)][Ac4c(3,3-F2)]AY[αMeV]T[dC]-NH2; linker 1-12 via mXylylene) |
